{"source": "the OPERA property sets (Mansouri et al. 2018)", "data": [{"units": {"melting point": "°C", "boiling point": "°C"}, "values": [{"smiles": "Clc1ccc(Cl)c(Oc2ccccc2)c1Cl", "log10 vapour pressure (mmHg)": -3.55}, {"smiles": "O=S(=O)(c1ccc(O)cc1)c1ccc(O)cc1", "melting point": 240, "ready biodegradability": "not readily biodegradable"}, {"smiles": "CCCCCCCOO", "melting point": 35.5}, {"smiles": "O=C(c1ccccc1)c1ccc([N+](=O)[O-])cc1", "melting point": 138}, {"smiles": "Clc1ccc(-c2c(Cl)cccc2Cl)c(Cl)c1", "log10 Henry constant (atm·m³/mol)": -3.85}, {"smiles": "CC(C)CCNCCC(C)C", "boiling point": 188, "melting point": -44}, {"smiles": "Nc1ccc(-c2ccc(Cl)cc2)cc1", "melting point": 134}, {"smiles": "CC[C@@H]1C(=O)OC[C@@H]1Cc1cncn1C.Cl", "melting point": 204}, {"smiles": "C=C(C)C(=C)C", "boiling point": 68.8, "log10 vapour pressure (mmHg)": 2.18, "melting point": -76}, {"smiles": "O=C1CSC(=S)N1", "melting point": 170}, {"smiles": "NNc1cccc2ccccc12", "melting point": 117}, {"smiles": "FC(F)(F)C1(F)C(F)(F)C(F)(F)C(F)(C(F)(F)F)C(F)(F)C1(F)F", "note": "(stereo unspecified)", "boiling point": 100}, {"smiles": "N#CCC#N", "boiling point": 218, "log10 vapour pressure (mmHg)": -0.698, "melting point": 32}, {"smiles": "c1ccc(Cc2ccc(-c3ccccc3)cc2)cc1", "melting point": 85}, {"smiles": "Clc1ccc(Br)cc1Cl", "boiling point": 237, "melting point": 25}, {"smiles": "C=C(C)C(=O)Cl", "boiling point": 96, "melting point": -60}, {"smiles": "O=C1CCCCC1C1CCCCC1", "note": "(stereo unspecified)", "boiling point": 264, "melting point": -32}, {"smiles": "Fc1ccc(C(F)(F)F)cc1", "boiling point": 104, "melting point": -41.7}, {"smiles": "CC(C)c1ccc(O)cc1", "boiling point": 230, "log10 vapour pressure (mmHg)": -1.34, "melting point": 62.3}, {"smiles": "C=CCCCBr", "boiling point": 126}, {"smiles": "O=c1[nH]cc(C(F)(F)F)c(=O)[nH]1", "melting point": 316}, {"smiles": "OC[C@@H](O)[C@@H](O)[C@H](O)[C@@H](O)CO", "ready biodegradability": "readily biodegradable"}, {"smiles": "O=C1CCN(c2ccccc2)N1", "melting point": 126}, {"smiles": "CCC(c1ccc(O)cc1)c1ccc(O)cc1", "melting point": 132}, {"smiles": "CCn1cc(C(=O)O)c(=O)c2cc(F)c(N3CCNC(C)C3)c(F)c21", "note": "(stereo unspecified)", "melting point": 240}, {"smiles": "FC(F)(F)Cl", "boiling point": -81.4, "log10 Henry constant (atm·m³/mol)": 0.14, "log10 vapour pressure (mmHg)": 4.33, "melting point": -181}, {"smiles": "CC/C(=C(\\c1ccccc1)c1ccc(OCCN(C)C)cc1)c1ccccc1", "melting point": 97}, {"smiles": "COC(=O)c1ccco1", "boiling point": 181}, {"smiles": "CCCC(O)(CC)CCC", "boiling point": 182}, {"smiles": "Brc1ccc(Br)cc1", "boiling point": 218, "log10 Koa": 5.21, "log10 vapour pressure (mmHg)": -1.24, "melting point": 87.3, "ready biodegradability": "not readily biodegradable"}, {"smiles": "CCOC(=O)C(C)=O", "boiling point": 155, "melting point": -50}, {"smiles": "O=C(CC(=O)C(F)(F)F)C(F)(F)F", "boiling point": 70}, {"smiles": "CON(C)C(=O)Nc1ccc(Cl)c(Cl)c1", "log10 Koc (L/kg)": 2.7, "log10 vapour pressure (mmHg)": -5.84, "melting point": 93, "ready biodegradability": "not readily biodegradable"}, {"smiles": "NCC(F)(F)F", "boiling point": 37.5}, {"smiles": "N#CCCl", "boiling point": 126, "log10 vapour pressure (mmHg)": 1.18}, {"smiles": "C1CN(CCN2CCOCC2)CCO1", "boiling point": 285, "melting point": 75}, {"smiles": "CCCCCCCCCCCCCCCCCCNC(=O)N1CC1", "ready biodegradability": "not readily biodegradable"}, {"smiles": "Clc1c(Cl)c(Cl)c(C(Cl)Cl)c(Cl)c1Cl", "boiling point": 334, "melting point": 120}, {"smiles": "C=CCNc1ccccc1", "boiling point": 219}, {"smiles": "CCOC(=O)C=C1SC(N2CCCCC2)C(=O)N1CC", "note": "(stereo unspecified)", "melting point": 86.5}, {"smiles": "CN(C)P(=O)(OP(=O)(N(C)C)N(C)C)N(C)C", "log10 vapour pressure (mmHg)": -3, "melting point": 17}, {"smiles": "c1ccc2c(c1)C1c3ccccc3C2c2ccccc21", "melting point": 254}, {"smiles": "Oc1ccc2cccc(O)c2c1", "melting point": 180}, {"smiles": "CCOC(=O)NC", "boiling point": 170, "log10 vapour pressure (mmHg)": -0.0435}, {"smiles": "FC(F)(F)C(F)(F)C(Cl)(Cl)Cl", "boiling point": 74, "melting point": -80}, {"smiles": "C#CC(C)N(C(=O)CCl)c1ccccc1", "note": "(stereo unspecified)", "melting point": 43.5}, {"smiles": "CCC(=O)c1ccc(O)cc1O", "melting point": 99}, {"smiles": "C#C[C@]1(O)CC[C@H]2[C@@H]3CCc4cc(OC)ccc4[C@H]3CC[C@@]21C", "melting point": 150}, {"smiles": "COC(=O)C(C)Oc1ccc(Oc2ccc(Cl)cc2Cl)cc1", "note": "(stereo unspecified)", "log10 Koc (L/kg)": 4.2, "log10 vapour pressure (mmHg)": -5.46, "melting point": 40, "ready biodegradability": "readily biodegradable"}, {"smiles": "CC(C)CCOC=O", "boiling point": 124, "log10 Henry constant (atm·m³/mol)": -3.17, "log10 vapour pressure (mmHg)": 1.18, "melting point": -93.5}, {"smiles": "CC(C)(CCl)c1ccccc1", "boiling point": 223}, {"smiles": "O=C(NCO)c1cccnc1", "melting point": 142}, {"smiles": "NS(=O)(=O)c1cc2c(cc1Cl)NC(C1CC3C=CC1C3)NS2(=O)=O", "note": "(stereo unspecified)", "melting point": 234}, {"smiles": "COC(=O)/C(C)=C/OP(=S)(OC)OC", "log10 vapour pressure (mmHg)": -2.92}, {"smiles": "CCCCCCBr", "boiling point": 155, "log10 vapour pressure (mmHg)": 0.591, "melting point": -84.7}, {"smiles": "CC1(C)CCC(=Cc2ccc(Cl)cc2)C1(O)Cn1cncn1", "note": "(stereo unspecified)", "melting point": 140}, {"smiles": "Nc1ccc(O)c2c1C(=O)c1ccccc1C2=O", "log10 vapour pressure (mmHg)": -8.52, "melting point": 216}, {"smiles": "Cc1cccc2c1C=CC2", "boiling point": 209}, {"smiles": "O=[N+]([O-])N1CCCCC1", "boiling point": 245, "melting point": -5.5}, {"smiles": "CCOC(=O)c1cccc(OC)c1", "boiling point": 260}, {"smiles": "Nc1ccn([C@@H]2O[C@H](CO)[C@@H](O)[C@@H]2O)c(=O)n1", "melting point": 212}, {"smiles": "OCCC(F)(F)F", "boiling point": 99.5}, {"smiles": "c1ccc2c(c1)CCCN2", "boiling point": 251, "melting point": 20}, {"smiles": "CNC(=O)Nc1ccc(OC)c(Cl)c1", "log10 Koc (L/kg)": 1.84}, {"smiles": "Cc1cccc(Oc2ccccc2)c1", "boiling point": 272, "ready biodegradability": "not readily biodegradable"}, {"smiles": "CCN(CC)c1nc(Cl)nc(N(CC)CC)n1", "melting point": 27}, {"smiles": "Cc1ccccc1I", "boiling point": 212, "log10 vapour pressure (mmHg)": -0.344}, {"smiles": "O=P(c1ccccc1)(c1ccccc1)c1ccccc1", "log10 vapour pressure (mmHg)": -8.59, "melting point": 156}]}]}
